# Data: patent publication US7098219B2, “Inhibitors of cellular efflux pumps of microbes” (Wockhart Limited, priority 2000, dated 2006)
# System: Staphylococcus aureus 1199 B NorA+
# Assay type: cell-based
# Settings: combination with ciprofloxacin, broth microdilution checkerboard, 35° C. 20 hours; FIC index ≦0.5 synergistic, 0.5–2.0 additive, >2.0 antagonistic
# Text: Testing method for inhibition of the efflux pump of Staphylococcus aureus 1199B NorA^+
# […]. Victor Lorian, Md., Fourth edition 1996, pp 333–338).
# In short, the assay involves broth microdilution method performed as recommended by the National Committee for Clinical Laboratory Standards (NCCLS) 1997 (Methods for Dilution of Antimicrobial Susceptibility Tests for Bacteria that Grow Aerobically, Fourth edition; Approved Standard, NCCLS document M7-A4, vol. 17, No. 2). The test organism used for the assay is Staphylococcus aureus 1199 B NorA^+.
# […]. Stock solutions of the efflux pump inhibitors tested are prepared in dimethyl sulfoxide (DMSO) at a final concentration of 5 mg/ml. Stock solutions are further diluted in Mueller Hinton Broth as per the need of the assay. Ciprofloxacin is dissolved in water.
# The checkerboard assay is performed in microtiter plates. […] The efflux pump inhibitor is diluted in the Y-axis, each row containing an equal concentration of efflux pump inhibitor. The result of these manipulations is that each well of the microtiter plate contains a unique combination of concentrations of the two agents. Bacterial inoculum is added at 5×10^5 CFU/ml. Microtiter plates are incubated at 35° C. for 20 hours. Reading is done by visibly noting turbidity and confirmed using a microtiter plate reader (Molecular Devices). The FIC index is calculated as
# (A) is the concentration of the experimental efflux pump inhibitor in the well that is the lowest inhibitory concentration in the Y-axis. (MICA) is the MIC of Staphylococcus aureus to experimental efflux pump inhibitor alone. FICA is the fractional inhibitory concentration of an experimental efflux pump inhibitor. […] (Antimicrobial Combination In Antibiotics in Laboratory Medicine, Ed. Victor Lorian, Md., Fourth edition 1996, pp 333–338).
row,Molecule,FIC INDEX
1,"CCn1cc(C(=O)O)c(=O)c2cc(F)c(N3CCC(OC(C)=O)CC3)c(F)c21 [Example 2 (NorA), 1-Ethyl-6,8-fluoro-1,4-dihydro-7-(4′-acetoxypiperidin-1-yl)-4-oxo-quinoline-3-carboxylic acid]",0.314
2,"CN(C)C1CCN(c2cc3c(cc2F)c(=O)c(C(=O)O)cn3C2CC2)CC1 [Example 12 (NorA), 1-Cyclopropyl-6-fluoro-1,4-dihydro-7-(4′-(N-dimethylamino)piperidin-1-yl)-4-oxo-quinoline-3-carboxylic acid]",0.188
3,"COc1c(N2CCNC(C)C2)c(F)cc2c(=O)c(C(=O)O)cn(C3CC3)c12 (stereo not drawn) [Example 23 (NorA), 1-Cyclopropyl-6-fluoro-8-methoxy-1,4-dihydro-7-(3′-methylpiperazin-1-yl)-4-oxo-quinoline-3-carboxylic acid]",0.314
4,"CC(=O)NC1CC(C)N(c2cc3c(cc2F)c(=O)c(C(=O)O)cn3C2CC2)C1 (stereo not drawn) [9 (NorA), 1-Cyclopropyl-6-fluoro-1,4-dihydro-7-(3′-acetamido-5′-methylpyrrolidin-1-yl)-4-oxo-quinoline-3-carboxylic acid]",0.314
5,"CC1CN(c2cc3c(cc2F)c(=O)c(C(=O)O)cn3C2CC2)CC(C)C1O (stereo not drawn) [Example 14 (NorA), 1-Cyclopropyl-6-fluoro-1,4-dihydro-7-(4′-hydroxy-3′,5′-dimethylpiperidin-1-yl)-4-oxo-quinoline-3-carboxylic acid]",0.314
6,"C[C@H](N)C(=O)N[C@@H](C)C(=O)NC1CCN(c2c(F)c(N)c3c(=O)c(C(=O)O)cn(C4CC4)c3c2F)C1 (stereo partly drawn) [Example 27 (NorA), 5-Amino-1-cyclopropyl-6,8-difluoro-1,4-dihydro-7-{3′-(L-Ala-L-Alaamino)pyrrolidin-1-yl}-4-oxo-quinoline-3-carboxylic acid]",0.128
7,"CC1COCC(C)N1c1c(F)c(N)c2c(=O)c(C(=O)O)cn(C3CC3)c2c1F (stereo not drawn) [Example 35 (NorA), 5-Amino-1-cyclopropyl-6,8-difluoro-1,4-dihydro-7-(3′,5′-dimethylmorpholin-1-yl)-4-oxo-quinoline-3-carboxylic acid]",0.314
8,"CCn1cc(C(=O)O)c(=O)c2c(N)c(F)c(N3CC(N)CC3C)c(F)c21 (stereo not drawn) [5 (NorA), 5-Amino-1-ethyl-6,8-difluoro-1,4-dihydro-7-(3′-amino-5′-methylpyrrolidin-1-yl)-4-oxo-quinoline-3-carboxylic acid]",0.378
9,"C[C@H]1CCc2c(N3CCC(O)CC3)c(F)cc3c(=O)c(C(=O)OC4CCN(C)CC4)cn1c23 [Example 56 (NorA), (S)-(−)-N-methylpiperidino-9-fluoro-6,7-dihydro-8-(4′-hydroxypiperidin-1-yl)-5-methyl-1-oxo-1H,5H-benzo[i,j]quinolizine-2-carboxylic acid]",0.180
10,"Cc1c(F)c(N2CCNC(C)(C)C2)cc2c1c(=O)c(C(=O)O)cn2C1CC1 [Example 18 (NorA), 1-Cyclopropyl-6-fluoro-1,4-dihydro-5-methyl-7-(3′,3′-dimethylpiperazin-1-yl)-4-oxo-quinoline-3-carboxylic acid]",0.314
11,"COc1c(N2CCC(N(C)C)C(C)C2)c(F)cc2c(=O)c(C(=O)O)cn(C3CC3)c12 (stereo not drawn) [19 (NorA), 1-Cyclopropyl-6-fluoro-8-methoxy-1,4-dihydro-7-{4′-(N-dimethylamino)-3′-methylpiperidin-1-yl}-4-oxo-quinoline-3-carboxylic acid]",0.200
12,"COc1c(N2CCC(O)C(CC(C)C)C2)c(F)cc2c(=O)c(C(=O)O)cn(C3CC3)c12 (stereo not drawn) [Example 20 (NorA), 1-Cyclopropyl-6-fluoro-8-methoxy-1,4-dihydro-7-(4′-hydroxy-3′-isobutylpiperidin-1-yl)-4-oxo-quinoline-3-carboxylic acid]",0.248
13,"(S)-(−)-9-Fluoro-6,7-dihydro-8-(4′-hydroxypiperidin-1-yl)-5-methyl-1-oxo-1H,5H-benzo[i,j]quinolizine-2-carboxylic acid L-aryinine salt [Example 54 (NorA)]",0.314
14,"CC1COCC(C)N1c1c(F)c(N)c2c(=O)c(C(=O)O)cn(-c3ccccc3C(F)(F)F)c2c1F (stereo not drawn) [Example 41 (NorA), 5-Amino-1-(2′-trifluoromethylphenyl)-6,8-difluoro-1,4-dihydro-7-(3′,5′-dimethylmorpholin-1-yl)-4-oxo-quinoline-3-carboxylic acid]",0.384
15,"O=C(O)c1cn(-c2ccc(F)cc2F)c2nc(N3CCN(c4cc5c(cc4F)c(=O)c(C(=O)O)cn5C4CC4)CC3)c(F)cc2c1=O [Bis compound 8, N-1-{7-(1-(2,4-difluorophenyl)-6-fluoro-1,4-dihydro-4-oxo-1,8-naphthyridine-3-carboxylic acid)}-N-4-{7-(1-cyclopropyl-6-fluoro-1,4-dihydro-4-oxo-quinoline-3-carboxylic acid)}-piperazine]",0.192
16,"CCOC(=O)COC(=O)c1cn2c3c(c(N4CCC(O)CC4)c(F)cc3c1=O)CC[C@H]2C [Example 57 (NorA), Ethoxy carbonylmethyl (R)-(+)-9-fluoro-6,7-dihydro-8-(4′-hydroxypiperidin-1-yl)-5-methyl-1-oxo-1H,5H-benzo[i,j]quinolizine-2-carboyxlate]",0.400
17,O=C(O)c1cn(C2CC2)c2nc(NC3CCN(c4nc5c(cc4F)c(=O)c(C(=O)O)cn5C4CC4)C3)c(F)cc2c1=O (stereo not drawn) [Bis compound 2],0.282
18,"CC1CC(O)CN1c1c(F)c(N)c2c(=O)c(C(=O)O)cn(-c3ccc(F)cc3F)c2c1F (stereo not drawn) [Example 46 (NorA), 5-Amino-1-(2′,4′-difluorophenyl)-6,8-difluoro-1,4-dihydro-7-(3′-hydroxy-5′-methylpyrrolidin-1-yl)-4-oxo-quinoline-3-carboxylic acid]",0.314
19,"Nc1c(F)c(N2CCC(N3CCCC3)CC2)c(F)c2c1c(=O)c(C(=O)O)cn2C1CC1 [Example 32 (NorA), 5-Amino-1-cyclopropyl-6,8-difluoro-1,4-dihydro-7-{4′-(1-pyrrolidinyl)piperidin-1-yl)-4-oxo-quinoline-3-carboxylic acid]",0.340
20,"CCOC(=O)c1cn([C@@H](C)CCSc2ccccc2)c2c(F)c(N3CCC(O)CC3)c(F)cc2c1=O [Example 38 (NorA), Ethyl 6,8-Difluoro-7-(4-hydroxypiperidin-1-yl)-1-(1-phenylthio-3(S)-but-3-yl)-1,4-dihydro-4-oxo-quinoline-3-carboxylate]",0.100
21,"Cc1c(F)c(N2CCC(Nc3nc4c(cc3F)c(=O)c(C(=O)O)cn4-c3ccc(F)cc3F)C2)cc2c1c(=O)c(C(=O)O)cn2C1CC1 (stereo not drawn) [Bis compound 5, N-1-{7-(1-cyclopropyl-6-fluoro-5-methyl-1,4-dihydro-4-oxo-quinolone-3-carboxylic acid)}-N-3-amino-{7-(1-(2,4-difluorophenyl)-6-fluoro-1,4-dihydro-4-oxo-1,8-naphthyridine-3-carboxylic acid)}-pyrrolidine]",0.320
22,"CC1(C)CN(c2c(F)c(N)c3c(=O)c(C(=O)O)cn(-c4ccc(F)cc4F)c3c2F)CCN1 [Example 47 (NorA), 5-Amino-1-(2′,4′-difluorophenyl)-6,8-difluoro-1,4-dihydro-7-(3′,3′-dimethylpiperazin-1-yl)-4-oxo-quinoline-3-carboxylic acid]",0.375
23,"CC1CC(C)CN(c2cc3c(cc2F)c(=O)c(C(=O)O)cn3-c2ccc(F)cc2F)C1 (stereo not drawn) [Example 45 (NorA), 1-(2′,4′-Difluorophenyl)-6-fluoro-1,4-dihydro-7-(3′,5′-dimethylpiperidin-1-yl)-4-oxo-quinoline-3-carboxylic acid]",0.192
24,"COc1c(N2CC(C)C(O)C(C)C2)c(F)cc2c(=O)c(C(=O)O)cn(C3CC3)c12 (stereo not drawn) [Example 22 (NorA), 1-Cyclopropyl-6-fluoro-8-methoxy-1,4-dihydro-7-(4′-hydroxy-3′,5′-dimethylpiperidin-1-yl)-4-oxo-quinoline-3-carboxylic acid]",0.370
25,"CC1CN(c2c(F)c(N)c3c(=O)c(C(=O)O)cn(C4CC4)c3c2F)CC(C)N1C(=O)C(C)(C)C (stereo not drawn) [Example 37 (NorA), 5-Amino-1-cyclopropyl-6,8-difluoro-1,4-dihydro-7-(3′,5′-dimethyl-4-pivaloylpiperazin-1-yl)-4-oxo-quinoline-3-carboxylic acid]",0.314
26,CCNC1CCN(c2cc3c(cc2F)c(=O)c(C(=O)O)cn3-c2ccc(F)cc2)CC1 [Example 44 (NorA)],0.189
27,"Nc1c(F)c(N2CCN(C3CC3)CC2)c(F)c2c1c(=O)c(C(=O)O)cn2C1CC1 [Example 36 (NorA), 5-Amino-1-cyclopropyl-6,8-difluoro-1,4-dihydro-7-(4′-cyclopropylpiperazin-1-yl)-4-oxo-quinoline-3-carboxylic acid]",0.314
